Test results as given in patent US20240376073A1 (Hoffmann-La Roche Inc., priority 2021, published 2024).
Where a name gives a salt, the structure may show the parent alone. Read-outs that look alike come from different tables or passages of the source.

Tested on: Acinetobacter baumannii ATCC17961
Experiment: Antimicrobial susceptibility testing: 90% growth inhibitory concentration (IC90) determination
Format: cell-based
Conditions: Iso-Sensitest broth, growth by OD 600 nm over 16 h, 35±2° C.
Experimental: The in vitro antimicrobial activity of the compounds was determined according to the following procedure:
The assay used a 10-points Iso-Sensitest broth medium to measure quantitatively the in vitro activity of the compounds against Acinetobacter baumannii ATCC17961.
Stock compounds in DMSO were serially twofold diluted (e.g. range from 50 to 0.097 μM final concentration) in 384 wells microtiter plates and inoculated with 49 μl the bacterial suspension in Iso-Sensitest medium to have a final cell concentration of ˜5×10^(5) CFU/ml in a final volume/well of 50 ul/well. Microtiter plates were incubated at 35±2° C.
Bacterial cell growth was determined with the measurement of optical density at λ=600 nm each 20 minutes over a time course of 16 h. Growth inhibition was calculated during the logarithmic growth of the bacterial cells with determination of the concentration inhibiting 50% (IC50) and 90% (IC90) of the growth.
Table 1 provides the […] growth inhibitory concentrations (IC90) in micromoles per liter of the compounds of present invention obtained against the strain Acinetobacter baumannii ATCC17961.

[1] = Acinetobacter baumannii ATCC17961, read-out: ATCC 17961 IC90
[2] = Acinetobacter baumannii, ATCC17961, 16 h, read-out: ATCC 17961 IC90, Acinetobacter baumannii ATCC17961

IC90 [1]	SMILES	IC90 [2]
220 nM	CCc1cc(NC(=O)c2ncc(-c3ccc(OC(F)F)c(F)c3F)n2C)ccc1C(=O)N1CCN(C(=O)C2CC[N+](CC(N)=O)(CC3CNC3)CC2)CC1 (stereo not drawn) [Example C21]	–
57 nM	COc1ccc(-c2cnc(C(=O)Nc3ccc(C(=O)N4CCN(C(=O)C5CC[N+](C)(CC(N)=O)CC5)CC4)c(Cl)c3)n2C)c(Cl)c1F (stereo not drawn) [Example C3, N-[4-[4-[1-(2-amino-2-oxo-ethyl)-1-methyl-piperidin-1-ium-4-carbonyl]-piperazine-1-carbonyl]-3-chloro-phenyl]-5-(2-chloro-3-fluoro-4-meth-oxy-phenyl)-1-methyl-imid-azole-2-carbox-amide; formate]	–
80 nM	CCc1cc(NC(=O)c2ncc(-c3ccc(OC(F)F)c(F)c3F)n2C)ccc1C(=O)N1CCN(C(=O)C2CC[N+](C)(CC3CCNCC3)CC2)CC1 (stereo not drawn) [Example C20, 5-[4-(difluoro-methoxy)-2,3-difluoro-phenyl]-N-[3-ethyl-4-[4-[1-methyl-1-(4-piperidylmethyl)-piperidin-1-ium-4-carbonyl]-piperazine-1-carbonyl]phenyl]-1-methyl-imid-azole-2-carbox-amide; 2,2,2-trifluoroacetate; 2,2,2-trifluoro-acetic acid]	–
49 nM	Cn1c(-c2ccc(OC(F)F)c(F)c2F)cnc1C(=O)Nc1ccc(C(=O)N2CCN(C(=O)C3CC[N+](C)(CC4CCNC4)CC3)CC2)c(Cl)c1 (stereo not drawn) [Example C14, N-[3-chloro-4-[4-[1-methyl-1-(pyrrolidin-3-yl-methyl)piperidin-1-ium-4-carbon-yl]piperazine-1-carbonyl]phenyl]-5-[4-(difluoro-methoxy)-2,3-difluoro-phenyl]-1-methyl-imid-azole-2-carbox-amide; formic acid; formate]	–
230 nM	COc1ccc(-c2cnc(C(=O)Nc3ccc(C(=O)NCc4cnn(CC5C[N+](C)(C)C5)c4)c(Cl)c3)n2C)c(F)c1F [Example C22, N-[3-chloro-4-[[1-[(1,1-dimethylazetidin-1-ium-3-yl)methyl]pyrazol-4-yl]methylcarbamoyl]phenyl]-5-(2,3-difluoro-4-methoxy-phenyl)-1-methyl-imidazole-2-carboxamide;formate]	–

More lines, now with the values behind:

SMILES	IC90 [1]	IC90 [2]
COc1ccc(-c2cnc(C(=O)Nc3ccc(C(=O)N4CCN(C(=O)C5CN(C(=O)C[N+](C)(C)C)C5)CC4)c(Cl)c3)n2C)c(F)c1F [Example B16, [2-[3-[4-[2-chloro-4-[[5-(2,3-difluoro-4-methoxy-phenyl)-1-methyl-imidazole-2-carbonyl]amino]benzoyl]piperazine-1-carbonyl]azetidin-1yl]-2-oxo-ethyl]-trimethyl-ammonium; formate]	230 nM	–
CCc1cc(NC(=O)c2ncc(-c3ccc(OC)c(F)c3F)n2C)ccc1C(=O)NCCOCC[N+](C)(C)C [Example A5, 2-(2-(4-(5-(2,3-difluoro-4-methoxyphenyl)-1-methyl-1H-imidazole-2-carboxamido)-2-ethylbenzamido)ethoxy)-N,N,N-trimethylethan-1-aminium iodide]	460 nM	–
COc1ccc(-c2cnc(C(=O)Nc3ccc(C(=O)N4CCN(C(=O)[C@@H]5C[C@@H](O)C[N+]5(C)C)CC4)c(Cl)c3)n2C)c(F)c1Cl [Example B48, 5-(3-chloro-2-fluoro-4-methoxy-phenyl)-N-[3-chloro-4-[4-[(2S,4R)-4-hydroxy-1,1-dimethyl-pyrrolidin-1-ium-2-carbonyl]piperazine-1-carbonyl]phenyl]-1-methyl-imidazole-2-carboxamide formate]	–	76 nM
COc1ccc(-c2cnc(C(=O)Nc3ccc(C(=O)N4CCN(C(=O)[C@@H]5C[C@@H](O)C[N+]5(C)C)CC4)c(Cl)c3)n2C)c(F)c1C#N [Example B51, N-[3-chloro-4-[4-[(2S,4R)-4-hydroxy-1,1-dimethyl-pyrrolidin-1-ium-2-carbonyl]piperazine-1-carbonyl]phenyl]-5-(3-cyano-2-fluoro-4-methoxy-phenyl)-1-methyl-imidazole-2-carboxamide; formate]	–	540 nM
